Where a name gives a salt, the structure may show the parent alone.
What was measured:
Format in all cases: physicochemical
[1] = Solubility of active ingredient salts in water
[2] = Compatibility with polyethylene glycol used in the film coating; details: at high active ingredient concentrations
[3] = Stability with respect to uptake or release of water under varying atmospheric humidity; details: varying conditions of atmospheric humidity; compared with compound of the formula (II)
[4] = Effect of light on active ingredient (I) or tablet cores; details: active ingredient (I) or the tablet cores

Row | Solubility in water at 25° C. [1] [mg/100 mL] | solubility ([1]; 25° C.) [mg/mL] | Effect of light [4] | Structure (SMILES) | Compatibility with polyethylene glycol used in the film coating [2] | Stability with respect to uptake or release of water [3]
1 | 6 |  |  | [Al+3].[O-]c1c(-n2ccnn2)cnn1-c1cc(N2CCOCC2)ncn1.[O-]c1c(-n2ccnn2)cnn1-c1cc(N2CCOCC2)ncn1.[O-]c1c(-n2ccnn2)cnn1-c1cc(N2CCOCC2)ncn1 [Aluminium salt] |  | 
2 |  | 26.2 | brown discolouration | Oc1c(-n2ccnn2)cnn1-c1cc(N2CCOCC2)ncn1 [Sodium salt (active ingredient (I)), sodium 1-[6-(morpholin-4-yl)pyrimidin-4-yl]-4-(1H-1,2,3-triazol-1-yl)-1H-pyrazol-5-olate] | physical incompatibility with polyethylene glycol | significantly higher stability with respect to uptake or release of water

From patent US9827198B2, “Pharmaceutical dosage forms comprising sodium-1-[6-(morpholin-4-yl)pyrimidin-4-yl]-4-(1H-1,2,3-triazol-1-yl)-1H-pyrazol-5-olate” (Bayer Pharma Aktiengesellschaft, priority 2013, dated 2017)
